Test results as given in patent publication US12509451B2, “Heteroaryl amide inhibitors of CD38” (NAPA THERAPEUTICS LTD., priority 2020, dated 2025).

Assays:
[1] = target: T1, CD38 NAD+ hydrolase activity in NH7-dCas9 cells (Jurkat clone) (Homo sapiens, UniProt P28907); experiment: Fluorescence-based NAD+ hydrolase activity assay with human T cell line NH7-dCas9 cells-Jurkat clone (Assay 1); conditions: read-out: Assay 1 Arithmetic mean IC50
T1 construct: The assay utilized CD38 expressing NH7-dCas9 cells (Jurkat clone); host or cells: NH7-dCas9 cells (Jurkat clone)
T1 sequence (P28907 1-300): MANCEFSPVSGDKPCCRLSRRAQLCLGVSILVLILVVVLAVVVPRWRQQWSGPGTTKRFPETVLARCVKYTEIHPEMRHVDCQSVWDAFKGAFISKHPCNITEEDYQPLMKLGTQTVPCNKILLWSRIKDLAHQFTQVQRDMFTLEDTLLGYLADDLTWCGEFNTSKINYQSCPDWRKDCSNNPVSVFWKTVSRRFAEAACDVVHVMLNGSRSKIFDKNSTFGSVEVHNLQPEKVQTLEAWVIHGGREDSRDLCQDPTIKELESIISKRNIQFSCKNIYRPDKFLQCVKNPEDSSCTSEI
Description: For the modified assay, the performance validation criteria of the assay as a High Throughput Screening (HTS): Z-factor within the plate was greater than 0.89 (optimal HTS z-factor >0.5) and the Intra-plate, inter-plate and day to day variability (CV) was less than 20%.
NAD+ hydrolase activity of a human T cell line treated with test compounds was measured using a fluorescence-based assay. NH7-dCas9 cells (Jurkat clone) were provided by the Weissman Lab (UCSF 1700 4th St., Byers Hall, Room 403B, San Francisco, CA 94158-2330). Briefly, cells were centrifuged, resuspended in 44 μl PBS/10^6 cells and plated in a 96 well black plate (CORNING) at a density of 1×10^6 per well.
Each test compound was received in a powder state and dissolved in DMSO as a 25 mM stock solution. Each test compound was serially diluted in order to generate a dose-response curve. The dilution series of each test compound in DMSO was prepared at 50 times the concentrations to be assayed. Each test compound was diluted to generate a 5-fold dilution series of 8 concentrations from 20 μM to 0.256 nM in order to assay 8 final concentrations ranging from 400 nM to 25.6 pM. One μl of the 50× concentration compound series was added to each well of the plate containing 1×10^6 cells in PBS.
Each plate had the following intra plate controls: 3 wells containing cells treated with vehicle only (DMSO), 3 wells of cells treated with the reference compound 78c at a final concentration of 50 nM and 2 wells containing only PBS (used as a background value).
The reaction was started by adding nicotinamide 1,N^6-etheno-adenine dinucleotide (Sigma Aldrich) to reach a final concentration of 80 µM. The samples were excited at 321-15 nm, and the emission of fluorescence was measured at 410-20 nm at 37° C. every minute for 1 hr in a Clariostar® microplate reader (BMG LABTECH). NAD+ hydrolase activity was calculated as the slope of the linear portion of the fluorescence-time curve using the MARS data analysis software (BMG LABTECH). The data were uploaded in the Collaborative Drug Design (CDD) Software and for each compound the IC50 was calculated by the software. Each compound was tested in 3 independent experiments on 3 separate days to establish the reproducibility of the results. For each plate, the z-factor was also calculated as a plate quality using the CDD software.

[2] = target: T2, recombinant mouse CD38 Protein (Mus musculus, UniProt P56528); experiment: Fluorescence-based NAD+ hydrolase activity assay with mouse recombinant CD38 protein (Assay 5); assay type: biochemical; conditions: read-out: Assay 5 Arithmetic mean IC50
T2 construct: purchased R&D System
T2 sequence (P56528 1-304): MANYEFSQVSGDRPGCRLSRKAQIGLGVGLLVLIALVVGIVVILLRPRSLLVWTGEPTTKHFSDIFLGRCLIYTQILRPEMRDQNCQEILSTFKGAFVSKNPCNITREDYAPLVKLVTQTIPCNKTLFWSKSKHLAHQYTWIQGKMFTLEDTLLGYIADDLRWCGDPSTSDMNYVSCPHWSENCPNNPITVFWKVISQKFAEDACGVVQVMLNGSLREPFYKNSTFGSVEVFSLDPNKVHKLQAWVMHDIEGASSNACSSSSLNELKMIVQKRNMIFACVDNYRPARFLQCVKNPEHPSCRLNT
Outline: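 Recombinant mouse CD38 (2.5 ng/well) in 0.25 M sucrose, 40 mM Tris pH 7.4, with compound at 8 final concentrations from 400 nM to 25.6 pM; reaction started with 80 µM etheno-NAD+. Fluorescence (ex 321, em 410 nm) read each minute for 1 h at 37 °C; activity as linear slope, IC50 from 3 independent experiments.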

Row | SMILES | IC50 [1] | IC50 [2]
1 | COc1cc(C(=O)Nc2ccnc(C(F)(F)F)c2)nc(-n2ccnc2)c1 [Compound 35, 6-(1H-imidazol-1-yl)-4-methoxy-N-(2-(trifluoromethyl)pyridin-4-yl)picolinamide] | < 1 nM | < 1 nM
2 | COc1cc(C(=O)Nc2cccnc2)nc(-n2ccnc2)c1 [Compound 36] | 1 to 50 nM | 1 to 50 nM
3 | COc1cc(C(=O)Nc2ccnc(C(F)(F)F)c2)nc(-n2ccnc2)n1 [Compound 37, 2-(1H-imidazol-1-yl)-6-methoxy-N-(2-(trifluoromethyl)pyridin-4-yl)pyrimidine-4-carboxamide] | < 1 nM | < 1 nM
4 | CCOc1cc(C(=O)Nc2ccnc(C(F)(F)F)c2)nc(-n2ccnc2)n1 [Compound 38] | < 1 nM | < 1 nM
5 | COCCOc1cc(C(=O)Nc2ccnc(C(F)(F)F)c2)nc(-n2ccnc2)n1 [Compound 39, 2-(1H-imidazol-1-yl)-6-(2-methoxyethoxy)-N-(2-(trifluoromethyl)pyridin-4-yl)pyrimidine-4-carboxamide] | < 1 nM | < 1 nM
6 | Cn1cncc1-c1cccc(C(=O)Nc2cccnc2)n1 [Compound 42, 6-(1-methyl-1H-imidazol-5-yl)-N-(pyridin-3-yl)picolinamide] | 1 to 50 nM | 1 to 50 nM
7 | Cn1cncc1-c1cccc(C(=O)Nc2ccc(C(F)(F)F)nc2)n1 [Compound 43] | < 1 nM | 1 to 50 nM
8 | Cc1cc(C(=O)Nc2ccncc2)nc(-c2nccn2C)c1 [Compound 45] | < 1 nM | < 1 nM
9 | Cn1ccnc1-c1cccc(C(=O)Nc2ccc(C(F)(F)F)nc2)n1 [Compound 47] | < 1 nM | 1 to 50 nM
10 | Cn1ccnc1-c1cccc(C(=O)Nc2cccnc2)n1 [Compound 48] | 1 to 50 nM | 1 to 50 nM
11 | Cc1cc(C(=O)Nc2cccnc2)nc(-n2ccnc2)n1 [Compound 49, 2-(1H-imidazol-1-yl)-6-methyl-N-(pyridin-3-yl)pyrimidine-4-carboxamide] | < 1 nM | < 1 nM
12 | Cc1cc(C(=O)Nc2ccncc2)nc(-n2ccnc2)n1 [Compound 50] | < 1 nM | < 1 nM

Other lines, results leading:

Row | IC50 [1] | IC50 [2] | SMILES
13 | < 1 nM | < 1 nM | Cc1cc(C(=O)Nc2ccncc2)nc(-n2ccnc2)c1 [Compound 52, 6-(1H-imidazol-1-yl)-4-methyl-N-(pyridin-4-yl)picolinamide]
14 | < 1 nM | < 1 nM | Cc1cc(C(=O)Nc2cccnc2)nc(-n2ccnc2)c1 [Compound 53]
15 | < 1 nM | < 1 nM | Cc1cc(C(=O)Nc2ccc(C(N)=O)nc2)nc(-n2ccnc2)c1 [Compound 54, N-(6-carbamoylpyridin-3-yl)-6-(1H-imidazol-1-yl)-4-methylpicolinamide]
16 | < 1 nM | < 1 nM | Cc1cc(C(=O)Nc2ccnc(C(N)=O)c2)nc(-n2ccnc2)c1 [Compound 55]
17 | < 1 nM | < 1 nM | CNC(=O)c1cc(NC(=O)c2cc(C)cc(-n3ccnc3)n2)ccn1 [Compound 56]
18 | < 1 nM | < 1 nM | CNC(=O)c1ccc(NC(=O)c2cc(C)cc(-n3ccnc3)n2)cn1 [Compound 57]
19 | 1 to 50 nM | 1 to 50 nM | Cc1ccc(-n2ccnc2)nc1C(=O)Nc1cccnc1 [Compound 59, 6-(1H-imidazol-1-yl)-3-methyl-N-(pyridin-3-yl)picolinamide]
20 | 1 to 50 nM | 1 to 50 nM | O=C(Nc1cccnc1)c1ccc(F)c(-n2ccnc2)n1 [Compound 61]
21 | 1 to 50 nM | 1 to 50 nM | O=C(Nc1cccnc1)c1nc(-n2ccnc2)ccc1F [Compound 62]
22 | < 1 nM | 1 to 50 nM | Nc1cc(C(=O)Nc2cccnc2)nc(-n2ccnc2)c1 [Compound 67]
